In patent EP0465913B1, “Diaminotrifluoromethylpyrimidine derivatives, process for their production and phospholipase A2 inhibitor containing them” (ISHIHARA SANGYO KAISHA, LTD., priority 1990, dated 1992):
Read-outs that look alike come from different tables or passages of the source.

Experiments:
carrageenin edema = assay: Inhibitory activity on carrageenin edema; type: in vivo, Wistar male rats; conditions: rat, paw swelling volume three hours after carrageenin
Protocol: Using Wistar male rats (body weight: about 100 g), each test group consisted of 5 rats. A test compound was mixed with Tween 80 [polyoxyethylenesorbitan monooleate (manufactured by Nacalai Tesque K.K.)], and distilled water was added thereto to obtain a 2% Tween 80 suspension, or it was dissolved in the form of a salt in water to obtain an aqueous solution. Either the suspension or the aqueous solution was orally administered in an amount of 200 mg/kg, 100 mg/kg, 50 mg/kg or 25 mg/kg. One hour later, 0.1 ml of a 1% λ-carrageenin solution dissolved in a physiological saline was injected subcutaneously to the right hind paw of each rat to cause inflamation. Three hours later, the paw volume was measured by a paw volume measuring device (manufactured by Ugobasiee K.K.). A swelling volume was obtained from the difference from the value before the inflammation. Inhibition rate (%) = (l -(F)/(E)) x 100 [formula] • F: Average swelling volume in the group to which a test compound was administered. • E: Average swelling volume in the control group.

[1] = test system: experimental acute pancreatitis model; assay: Effects against acute pancreatitis (Test Example 8, closed duodenal loop method, lesion scores); type: in vivo, Crj-CD male rats; conditions: Rattus norvegicus, 10 mg/kg single intravenous injection, sodium salt, 6 hours after ventrotomy
Protocol: Using Crj-CD male rats, each test group consisted of 3 rats. An experimental acute pancreatitis model was prepared by a closed duodenal loop method under anethesia with halothane (manufactured by Hoechst Japan) and nitrous oxide (manufactured by Sumitomo Seika K.K.) applied by a general inhalation anesthesia machine (Model EM2 and halothane evaporator F-Model). Each compound (subjected to the test in the form of a sodium salt) was continuously intravenously injected into the tail vein in an amount of 0.4 ml/100 g to 0.6 ml/100 g at a rate of 0.05 ml per minute by a pump (Technicon AA II Proportioning Pump III, manufactured by Technicon Instruments Corporation) or rapidly intravenously injected. No injection was made to a control group. Gross pathological examination was conducted upon expiration of 6 hours after the ventrotomy in the case of the group to which the compound was administered. With respect to each of four lesions among pancreatic lesions i.e. petechia, ecchymosis, pancreatic necrosis and abdominal fatty necrosis, the grade and the distribution of lesions were scored with five grades of 0, 0.5, 1, 2 and 3 (severe lesions are 3). The sum of all lesions was designated as scores of pancreatitis lesions, and the sum of the score of petechia and the score of ecchymosis only was designated as scores of hemorrhagic lesions. The pancreatitis inhibition rate (%) and the hemorrhage inhibition rate (%) were obtained by the following formulas, and the results are shown in Table 13. Pancreatitis inhibition rate (%) = (l -(H)/(G)) x 100 [formula] • H: Scores of pancreatitis lesions of the group to which a test compound was administered. • G: Scores of pancreatitis lesions of the control group. Hemorrhage inhibition rate (%) = (l -(J)/(I)) x 100 [formula] • J: Scores of hemorrhagic lesions of the group to which a test compound was administered. • I: Scores of hemorrhagic lesions of the control group.

[2] = biological target: T1, Porcine pancreatic phospholipase A2 (Sus scrofa, UniProt P00592); assay: Phospholipase A2 inhibitory activity, method B (L-α-dipalmitoylphosphatidylcholine substrate); type: biochemical; conditions: 1,000 ppm, 37°C for 30 minutes, read-out: % inhibition of PLA2 (1,000 ppm)
T1 construct: purchased Boehringer Mannheim·Yamanouchi K.K. 161454·122416
Protocol: To a solution prepared by dissolving 9.2 mg of L-α-dipalmitoylphosphatidylcholine (manufactured by Nichiyu Liposome K.K.) in 0.5 ml of chloroform, a solution prepared by dissolving 32 mg of sodium cholate (manufactured by Wako Pure Chemical Industries, Ltd.) in 0.5 ml of methanol, was added, followed by mixing. The solvent of the mixture was removed under a nitrogen stream, and then 2.5 ml of a 250 mM sodium chloride solution [prepared by dissolving sodium chloride in a 100 mM Tris-HCl buffer solution {tris(hydroxymethyl)aminomethane (manufactured by Nacalai Tesque K.K.) was adjusted to pH8.0 with hydrochloric acid}] was added thereto, and the mixture was dissolved under stirring to obtain a substrate.
Porcine pancreatic phospholipase A2 [(161454·122416) manufactured by Boehringer Mannheim·Yamanouchi K.K.] was used.
To a 96 well microtitration plate, 20 µl of a solution containing calcium chloride, bovine serum alubmin (manufactured by Sigma Chemical, Co.) and a Tris-HCl buffer solution (pH8.0) at concentrations of 25 mM, 4.5 mg/ml and 100 mM, respectively, 5 µl of a solution prepared by dissolving 10 mg of a test compound in 500 µl of diemthylsulfoxide, followed by an addition of 500 µl of a 200 mM Tris-HCl buffer solution, 5 µl of an enzyme solution (10 µg/ml) [prepared by dissolving the enzyme in a bovine serum alubmin solution (prepared by dissolving bovine serum alubmin in a 100 mM Tris-HCl buffer solution at a concentration of 1 mg/ml)] and 20 µl of the substrate, were added and reacted at 37°C for 30 minutes. After termination of the reaction, the released free fatty acid was quantitatively analyzed in accordance with the ACS-ACOD (acyl CoA synthetase-acyl CoA oxidase) method [a kit of NEFA C test wako (manufactured by Wako Pure Chemical Industries, Ltd.) was used]. The quantitative analysis was made by means of Microplate ELISA Reader (Model 2550EIA Reader, manufactured by Bio-Rad Laboratories) at a wavelength of 540 nm. Separately, such experiments as mentioned above, were carried out at various concentrations (1 µg/ml, 0.75 µg/ml, 0.5 µg/ml and 0.25 µg/ml) of phospholipase A2 without a test compound. Then, the concentration of the free fatty acid versus the concentration of phospholipase A2 was plotted.
From this standard curve, the apparent concentration of phospholipase A2 in the case with a test compound, was read. Then, the percent inhibition of the enzyme was calculated by the following formula. Percent inhibition (%) = (l -(A)/(B)) x 100 [formula] • A: Apparent enzyme concentration when a test compound is added. • B: True enzyme concentration when a test compound is added.

[3] = read-out: Inhibition rate of hemorrhagic lesions (%)
[4] = read-out: Inhibition rate of pancreatitis lesions (%)

T1 sequence (P00592 23-146): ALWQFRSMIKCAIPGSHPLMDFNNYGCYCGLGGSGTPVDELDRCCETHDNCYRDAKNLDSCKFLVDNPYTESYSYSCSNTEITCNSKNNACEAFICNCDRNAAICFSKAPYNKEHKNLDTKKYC

SMILES | inhibition in vivo at 10 mg/kg [1, 3] | inhibition in vivo at 10 mg/kg [1, 4] | inhibition at 1000 ppm [2] | further results
CCOC(=O)NC(=S)Nc1cc(C(F)(F)F)cnc1NS(=O)(=O)c1ccc(C)cc1 [Compound No. 25] |  |  |  | inhibition in vivo at 200 mg/kg (carrageenin edema; po, 3 h, dose 200 mg/kg orally, read-out: Inhibition rate (%)): 27%
CS(=O)(=O)Nc1ncc(C(F)(F)F)cc1NC(=O)c1ccc2c(c1)OCC(F)(F)O2 [Compound No. 35] | 35% | 35% |  | 
CS(=O)(=O)Nc1ncc(C(F)(F)F)cc1NC(=O)c1ccc2c(c1)OCCO2 [compound 34] | 30% | 30% |  | 
CS(=O)(=O)Nc1ncc(C(F)(F)F)cc1NC(=O)CC1CCCC1 [compound 62] | 45% | 61% | 53% | 
CS(=O)(=O)Nc1ncc(C(F)(F)F)cc1NC(=O)CCc1ccccc1 [compound 64] | 60% | 68% | 61% | 
CS(=O)(=O)Nc1ncc(C(F)(F)F)cc1NC(=O)C1CCCCCC1 [compound 67] |  |  | 82% | inhibition in vivo at 25 mg/kg (carrageenin edema; po, 3 h, dose 25 mg/kg orally, read-out: Inhibition rate (%)): 19%
CS(=O)(=O)Nc1ncc(C(F)(F)F)cc1NC(=O)C1=CCCCC1 [compound 69] |  |  | 63% | Inhibition rate (%) (carrageenin edema; dose 50 mg/kg orally): 25%
CC(C)=CC(=O)Nc1cc(C(F)(F)F)cnc1NS(C)(=O)=O [compound 70] |  |  | 40% | 
CS(=O)(=O)Nc1ncc(C(F)(F)F)cc1NC(=O)C=Cc1ccccc1 [compound 71] |  |  | 77% | 
C=CCCC(=O)Nc1cc(C(F)(F)F)cnc1NS(C)(=O)=O [compound 74] | 66% | 67% | 33% | 
CS(=O)(=O)Nc1ncc(C(F)(F)F)cc1NC(=O)C#Cc1ccccc1 [compound 75] |  |  | 81% | 
CS(=O)(=O)Nc1ncc(C(F)(F)F)cc1NC(=O)c1ccc(F)cc1F [compound 76] |  |  | 61% | 
CCc1ccc(C(=O)Nc2cc(C(F)(F)F)cnc2NS(C)(=O)=O)cc1 [compound 81] | 49% | 58% | 94% | 
Cc1ccc(C(=O)Nc2cc(C(F)(F)F)cnc2NS(C)(=O)=O)s1 [compound 83] | 53% | 51% | 64% | 
CS(=O)(=O)Nc1ncc(C(F)(F)F)cc1NC(=O)c1ccsc1 [compound 84] |  |  | 56% | 
CS(=O)(=O)Nc1ncc(C(F)(F)F)cc1NC(=O)c1ccco1 [compound 85] | 57% | 67% | 33% | 
CS(=O)(=O)Nc1ncc(C(F)(F)F)cc1NC(=O)c1cc2c(s1)CCC2 [compound 88] |  |  | 83% | 
CC(Cl)(Cl)C(=O)Nc1cc(C(F)(F)F)cnc1NS(C)(=O)=O [compound 89] |  |  | 51% | 
CS(=O)(=O)Nc1ncc(C(F)(F)F)cc1NC(=O)C(=O)c1ccccc1 [compound 90] |  |  | 79% | 
O=C(Nc1cc(C(F)(F)F)cnc1NS(=O)(=O)C(F)(F)F)c1cccs1 [compound 92] |  |  | 75% | 
